Test results: patent US7078395B1, “Methods for treating or preventing cancer by preventing, inhibiting or arresting cell cycling” (priority 1999, dated 2006)

What was measured:
[1] = test system: MCF-7 breast cancer cells; assay: Cell Titer 96 cell proliferation assay, 4-day drug exposure; type: cell-based
Method: MCF-7 (ER+) and MDA-MB-231 (ER−) breast cancer cells were obtained from the American Type Culture Collection (Rockville, Md.). Cells were routinely cultured in 25 cm^2 culture flasks in Eagle's minimum essential medium (EMEM) with Hepes buffer (20 mM). This medium was supplemented with L-glutamine (2 mM), sodium hydrogen carbonate (10 mM), 1% non-essential amino acids and 5% (v/v) foetal calf serum (FCS). Before adding test compounds, cells were washed with phosphate-buffered saline (PBS) and treatments added in phenol-red free medium containing 2% stripped FCS and supplements. The effects of 2-MeOE1 or 2-MeOEMATE on the growth of MCF-7 cells was assessed using a Cell Titer 96 cell proliferation assay (Promega, Southampton, Hants, UK) according to the manufacturers' instructions. For this, cells (5000 per well) were cultured in medium containing phenol-red and 10% FCS and were exposed to a drug for 4 days before the assay was performed. For MDA-MB-231 cells, cell numbers were determined using a Coulter counter.

[2] = test system: MCF-7 breast cancer cells; assay: Irreversible inhibition of cell growth, Stage 1 and Stage 2 (Coulter cell counter); type: cell-based; settings: for cell numbers, % of the control cell number, Stage 1: 6 days
Method: MCF-7 breast cancer cells were seeded into multi-well culture plates at a density of 10^5 cells/well. Cells were allowed to attach and grown until about 30% confluent when they were treated as follows:
Cells were grown for 6 days in growth medium containing the above drugs with changes of medium/drug every 3 days. At the end of this period cell numbers were counted using a Coulter cell counter.
After treatment of cells for a 6-day period with the above drugs cells were re-seeded at a density of 10^4 Cells/well. No further treatments were added. Cells were allowed to continue to grow for a further 6 days in the presence of growth medium. At the end of this period cell numbers were again counted.
Stages 1 and 2 described above were repeated using Control—no treatment, EMATE 20 μM and EMATE 5 μM.
MCF-7 breast cancer cells were seeded into multi-well culture plates at a density of 10^5 cells/well. Cells were allowed to attach and grown until about 30% confluent when they were treated as follows: • Control—no treatment • Compound of Interest (COI) 20 μM
Cells were grown for 6 days in growth medium containing the COI with changes of medium/COI every 3 days. At the end of this period cell numbers were counted using a Coulter cell counter.
After treatment of cells for a 6-day period with the COI cells were re-seeded at a density of 10^4 cells/well. No further treatments were added. Cells were allowed to continue to grow for a further 6 days in the presence of growth medium. At the end of this period cell numbers were again counted.

[3] = Homo sapiens, MCF7, 96 h, read-out: inhibition of proliferation of MCF-7 cells

COc1cc2c(cc1OS(N)(=O)=O)CCC1C2CC[C@]2(C)C(=O)CCC12 (stereo partly drawn) [2-MeOEMATE, 2-methoxyoestrone-3-O-sulphamate] was tested. Which “inhibition of proliferation of MCF-7 cells” value ([1]; 10 μM, 4 days) did it give?
The value was “no further effect on cell proliferation”.

And the inhibition at 0.1 µM [1, 3]?
The inhibition at 0.1 µM was 29%.

And the inhibition at 1 µM [1, 3]?
Its inhibition at 1 µM is 52%.

And the “cell numbers, % of the control cell number, Stage 1” value ([2]; 1 m (so in the source))?
The value was 52%.

And the “cell numbers, % of the control cell number, Stage 1” value ([2]; 5 μm)?
The value was 43%.

What about the “effect on cell numbers, Stage 2 (irreversible growth inhibition)” value ([2]; re-seeded after 6-day treatment, further 6 days without drug) of the same molecule?
The value was “severely growth restricted”.
